# Assay results as given in patent publication US7745420B2, “Methods for increasing in vivo efficacy of oligonucleotides and inhibiting inflammation in mammals” (Topigen Pharmaceutique, Inc., priority 2001, dated 2010).
# [DAP] = 2,6-diaminopurine base replacing adenine; [I] = hypoxanthine (inosine)
# Key:
# rat model of asthma [1] = conditions: see WO 99/66037; cited from earlier work
# rat model of asthma [2] = assay: Cellular influx into the lungs after antigen challenge (lung lavage differential cell count); type: in vivo; conditions: 200 μg intratracheal before ovalbumin challenge; for inhibition of recruitment of eosinophils: bronchoalveolar lavage after 15 hours
# Procedure: (§1) Active sensitization of rats was performed by subcutaneous injection of 1 ml of saline containing 1 mg of chicken egg ovalbumin (OA) (Sigma, St. Louis, Mo.) and 3.5 mg of aluminum hydroxide gel (BDH Chemicals, Poole, UK).
# On day 14 after sensitization with ovalbumin, after general anesthesia with 65 mg/Kg pentothal and endotracheal intubation, ovalbumin challenge is performed by injecting 200 micrograms of ovalbumin in 60 μl intratracheally. After 8 hours or 15 hours, the rats are again intubated after general anesthesia and a lung lavage consisting of 5 times 5 ml instillation of 0.9% saline is performed. Cells are washed, counted and centrifuged onto slides in a Cytospin III™. A differential cell count is performed.
# On day 14, the rats were intubated after general anesthesia with pentothal (65 mg/kg) and received 200 μg of ASA4, ASA4-DAP (5′-DapCTCDapTDapTTCDapTDapGGGTG-3′; SEQ ID NO:27), AS141-DAP (5′-TGGCDapCTTTDapGGTGGCTG-3′; SEQ ID NO:29), mismatch AS141-DAP (5′-GTGCCDapTTTGDapGTGGCTG-3′; SEQ ID NO:30), combination of ASA4-DAP and AS141-DAP (total of 100 μg) or saline in 50 μl of 0.9% NaCl intratracheally. Twenty minutes later ovalbumin challenge is performed by injecting 200 μg of ovalbumin in 50 μl of 0.9% saline intratracheally. After 15 hours, the rats were again intubated after general anesthesia, and a lung lavage consisting of 5 times 5 ml instillation was performed. Cells were washed, counted and centrifuged onto slides in a Cytospin III™. A differential cell count was finally performed.
# rat model of asthma [3] = assay: Leukotriene D4 responsiveness after antigen (ovalbumin) challenge; type: in vivo; conditions: 200 μg intratracheal, 15 hours after ovalbumin challenge; for airway responsiveness to leukotriene D4: vs control challenged and DAP mismatch treated rats
# Procedure: as §1
# (§2) The equipment and methodology for measuring pulmonary resistance was as previously described (Renzi, P. M., et al. Am. Rev. Respir. Dis 146: 163-169, 1992). General anesthesia was induced with either pentothal (50 mg/kg) or urethane (1.1 g/kg) intra-peritoneally. Endo-tracheal intubation was then performed using a 6 cm length of PE-240™ polyethylene catheter. A heating pad was used to maintain constant body temperature and rectal temperature was monitored continuously with an electronic thermometer (Telethermometer™, Yellow Springs Instrument Co., Yellowsprings, Ohio). Lung resistance (RL) was measured during spontaneous tidal breathing with the animals in the lateral decubitus position. Flow was measured by placing the tip of the tracheal tube inside a small Plexiglass™ box (265 ml in volume). A Fleish™ No. 0 pneumotachograph coupled to a differential pressure transducer (MP-45+2 cm H20; Validyne Corp, Northridge, Calif.) was attached to the other end of the box to measure airflow, and volume was obtained by numerical integration of the flow signal. Changes in esophageal pressure were measured by using a saline-filled catheter and a differential pressure transducer (Sanborn 267 BC™; Hewlett Packard, Waltham, Mass.). The other port of the transducer was connected to the box. The esophageal catheter consisted of polyethylene tubing (PE-200™) 20-cm long attached to a shorter length (6 cm) of tubing (PE-100™). Transpulmonary pressure was computed as the difference between esophageal and box pressure. The airway response was evaluated from RL, which was determined by fitting the equation of motion of the lung by multiple linear regression using commercial software (RHT-Infodat Inc., Montreal, Quebec, Canada).
# We have previously shown that the antisense ASA4 (5′-ACTCATATTC ATAGGGTG-3′; SEQ ID NO:26) directed against the rat CCR3 receptor was effective at inhibiting eosinophil influx into the lungs after antigen challenge (see WO 99/66037). We employed the same oligonucleotide sequences for these experiments. […] After 15 hours, the rats were again intubated after general anesthesia, baseline lung resistance measured and doubling concentrations of leukotriene D4 injected intratracheally (50 ng to 1600 ng) until baseline lung resistance doubled (EC200).
# [4] = system: common Beta chain of human GM-CSF, IL-3 and IL-5 receptor; assay: Semi-quantitative RT-PCR of common beta chain mRNA in U937 cells treated with antisense; type: cell-based; conditions: 10 μmol, six hours, compared to AS107
# Procedure: Experiments were performed to assess whether antisense oligonucleotides described in international application WO 99/66037 (incorporated herein) directed against the common beta sub-unit of the IL-3, IL-5 and GM-CSF receptor, could inhibit the expression and the function of this receptor when modified by replacing adenosine by either 2-amino-2′-deoxyadenosine or inosine. TF-1 and U937 cells express high levels of GM-CSF receptors. In addition, TF-1 cells are dependent on GM-CSF for survival. These cells were cultured in RPMI 1640 supplemented with 10% heat-inactivated fetal calf serum, penicillin, streptomycin and 1-glutamine at 37° C. in 5% CO2 (the TF-1 cells were supplemented with GM-CSF). […] The sequence for 107A-DAP was: 5′-GGGTCTGCDapGCGGGDapTGGT-3′ (SEQ ID NO:21); the sequence for 107A-inosine (107A-I) was: 5′-GGGTCTGCIGCGGGIT GGT-3′ (SEQ ID NO:22). The cells were retrieved and washed 3 times. RNA was then retrieved and the presence of the beta chain of the receptor was assessed by semi-quantitative RT-PCR.
# [5] = system: sensitized but unchallenged Brown Norway rats; assay: Cellular influx into the lungs after adenosine or DAP administration; type: in vivo, rat
# Procedure: Fourteen days after sensitization, the rats were intubated after anesthesia with pentothal 65 mg/kg, and 100 μg of adenosine or 2-amino-2′-deoxyadenosine or of 2-amino-2′deoxyadenosine followed 10 minutes later by adenosine or of saline was injected intratracheally in 50 μl. Fifteen hours later, the rats were intubated after general anesthesia with pentothal, and a lung lavage was performed and the cells were counted as described above.
# In another experiment, groups of six sensitized but unchallenged Brown Norway rats were anesthetized with pentothal and endotracheally intubated. The rats then received an intratracheal injection of either (1) saline (control), (2) 100 μg of adenosine, (3) 100 μg of 2-amino-2′-deoxyadenosine (DAP) or (4) 100 μg of DAP followed by 100 μg of adenosine 10 minutes later. The rats were awakened, re-anesthetized and intubated 15 hours later for a lung lavage. Cells that were present in media collected from the lavage, were counted and a differential was obtained on Cytospin∩ slides.
# [6] = system: sensitized Brown Norway rats; assay: Airway responsiveness (lung resistance) to intratracheal adenosine, DAP nucleoside and DAP analogs; type: in vivo, rat
# Procedure: as §1, §2
# On day 14 post-sensitization, rats were anesthetized with pentothal (65 mg/kg), intubated, and baseline RL was measured. Rats were given incremental doses intratracheally of adenosine (CAS 58-61-7), 2,6-diaminopurine hemisulfate salt (CAS 69369-16-0), DAP (2-amino-2-deoxyadenosine; CAS 4546-70-7), 2-amino-9-(B-D-2′-deoxyribo furanosyl)purine (CAS 3616-24-8), 7-Deaza-2′deoxyadenosine (CAS 60129-59-1), N6-Methyl-2′-deoxyadenosine (CAS 2002-35-9), 2-aminoadenosine/2,6-diamunopurine riboside (CAS 2096-10-08) over the dose range of 0.125 μg to 100 μg in 50 μl of either saline or saline plus acetic acid. Immediately after each dose RL was measured. DAP was dissolved as follows: 3 mg of DAP was combined with 100 μl of acetic acid, adjusted to 1.5 to 3 ml by the addition of saline, and heated to 70° C. This gave a final concentration of 1 to 2 μg/μl. Dilutions were performed in the same buffer. Control animals received saline with acetic acid at the same final concentration as indicated.
# [7] = at 5 fold lower concentration (1 μg)
# [8] = at peak adenosine toxicity (5 μg)
# [9] = 100 μg intratracheal, lung lavage 15 hours later
compound,measurement,setting,value
"5′-ACTCATATTC ATAGGGTG-3′ (antisense ACTCATATTCATAGGGTG; DNA, all phosphorothioate, methylation of C not given here) [ASA4]",inhibition of the eosinophil influx that occurs after antigen challenge,rat model of asthma [1],inhibit the eosinophil influx
same,inhibition of recruitment of eosinophils,rat model of asthma [2],84%
same,lymphocyte recruitment,rat model of asthma [2]; lavage after 15 hours,significant decrease
same,macrophage recruitment,rat model of asthma [2]; lavage after 15 hours,strong trends for decreases
same,neutrophil recruitment,rat model of asthma [2]; lavage after 15 hours,strong trends for decreases
"5′-DapCTCDapTDapTTCDapTDapGGGTG-3′ (antisense NCTCNTNTTCNTNGGGTG; DNA, [DAP] at 1, 5, 7, 11, 13, all phosphorothioate, methylation of C not given here) [ASA4-DAP]","airway responsiveness to leukotriene D4, compared to unchallenged rats",rat model of asthma [3],no different
same,"airway responsiveness to leukotriene D4, compared to unmodified ASA4",rat model of asthma [3],tended to be more effective
same,airway responsiveness to leukotriene D4,rat model of asthma [3],significantly decreased
same,inhibition of recruitment of eosinophils,rat model of asthma [2],83%
same,decrease of lymphocyte recruitment,rat model of asthma [2]; lavage after 15 hours,74%
same,macrophage recruitment,rat model of asthma [2]; lavage after 15 hours,tended to decrease
same,neutrophil recruitment,rat model of asthma [2]; lavage after 15 hours,tended to decrease
"5′-GGGTCTGCIGCGGGIT GGT-3′ (DNA GGGTCTGCNGCGGGNTGGT; DNA, [I] at 9, 15, backbone and methylation of C not given here) [AS107-I, reference compound]","inhibiting mRNA expression, semi-quantitative PCR",[4],not effective
"5′-TGGCACTTTAGGTGGCTG-3′ (phosphorothioate backbone, further chemistry not given here) [AS141]",airway responsiveness to leukotriene D4,rat model of asthma [3],decreased significantly
same,inhibition of the eosinophil influx that occurs after antigen challenge,rat model of asthma [1],inhibit the eosinophil influx
same,lymphocyte recruitment,rat model of asthma [2]; lavage after 15 hours,significant decrease
same,macrophage recruitment,rat model of asthma [2]; lavage after 15 hours,significant decrease
same,neutrophil recruitment,rat model of asthma [2]; lavage after 15 hours,strong trends for decreases
same,recruitment of eosinophils,rat model of asthma [2]; lavage after 15 hours,effectively inhibited
"5′-TGGCDapCTTTDapGGTGGCTG-3′ (antisense TGGCNCTTTNGGTGGCTG; diaminopurine (Dap) replaces adenosine at two places, sugar and backbone not given here, further chemistry not given here) [AS141-DAP]",macrophage recruitment,rat model of asthma [2]; lavage after 15 hours,significantly decreased
same,recruitment of eosinophils,rat model of asthma [2]; lavage after 15 hours,effectively inhibited
"Nc1nc(N)c2ncn([C@H]3C[C@H](O)[C@@H](CO)O3)c2n1 [DAP, 2-amino-2-deoxyadenosine]",inhibition of eosinophil recruitment induced by adenosine,"[5]; 100 μg DAP followed by 100 μg adenosine 10 minutes later, lavage 15 hours later",completely inhibits the recruitment of eosinophils
same,relative toxicity ranking (lung resistance),[6]; [7],adenosine>2 amino-2 deoxyadenosine/DAP>rest
same,relative toxicity ranking (lung resistance),[6]; [8],adenosine>N6-Methyl-2′deoxyadenosine>rest including DAP
same,effect on lung resistance (% baseline) after intratracheal dosing,"[6]; incremental doses 0.125 μg to 100 μg intratracheal, sensitized rats",does not significantly increase lung resistance
"CNc1ncnc2c1ncn2[C@H]1C[C@H](O)[C@@H](CO)O1 [N6-Methyl-2′deoxyadenosine, N6-methyl-2′-deoxyadenosine]",relative toxicity ranking (lung resistance),[6]; [8],adenosine>N6-Methyl-2′deoxyadenosine>rest including DAP
"Nc1ncnc2c1ncn2[C@@H]1O[C@H](CO)[C@@H](O)[C@H]1O [adenosine, reference compound]",effect on other cell types in lung lavage,[5]; [9],without significantly affecting other cell types
same,increase of eosinophil recruitment into the lungs,[5]; [9],more than 10 fold
same,relative toxicity ranking (lung resistance),[6]; [7],adenosine>2 amino-2 deoxyadenosine/DAP>rest
same,relative toxicity ranking (lung resistance),[6]; [8],adenosine>N6-Methyl-2′deoxyadenosine>rest including DAP
same,dose at which lung resistance peaks,"[6]; incremental intratracheal doses, sensitized rats",5 µg
